Results on three molecules are retold here after ChEMBL document CHEMBL2406903, “FPRL-1 Receptor Modulators May Provide Treatment for Inflammation” (ACS Med Chem Lett, 2013).

The target in the assay is T1, N-formyl peptide receptor 2 (Homo sapiens) (UniProt P25090).
T1 sequence (whole entry): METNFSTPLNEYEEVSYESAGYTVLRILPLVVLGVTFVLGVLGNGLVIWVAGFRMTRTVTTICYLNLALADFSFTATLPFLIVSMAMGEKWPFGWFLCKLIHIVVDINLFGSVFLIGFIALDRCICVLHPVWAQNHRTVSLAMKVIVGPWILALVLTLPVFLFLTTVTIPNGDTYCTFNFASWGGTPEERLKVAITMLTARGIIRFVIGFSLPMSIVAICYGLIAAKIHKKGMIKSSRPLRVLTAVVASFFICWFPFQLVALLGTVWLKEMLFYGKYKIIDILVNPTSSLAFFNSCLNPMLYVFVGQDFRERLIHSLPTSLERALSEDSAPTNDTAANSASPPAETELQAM
Nature of the assay: Modulation of FPRL1 (unknown origin) expressed in CHO-Ga16 cells assessed as induction of calcium activity at 0.61 to 10000 nM by FLIPR assay relative to control. It is filed as functional, cell-based.
With `CC(C)C[C@H](NC(=O)Nc1ccc(C(F)(F)F)cc1)C(=O)NC(C)(C)C(=O)O`, the fold change (FC) is 0.92. As to `CC(C)C[C@H](NC(=O)Nc1ccc(Br)cc1)C(=O)NC(C)(C)C(=O)O`, the fold change (FC) came out at 0.96. On to `CC[C@@H](C)[C@@H](NC(=O)Nc1ccc(Br)cc1)C(=O)NCC(=O)O`, for which the fold change (FC) was 0.45.
